In brackets after ≈: the same amount, converted by molar mass.
Columns and labels:
Type in all cases: functional
[1] = system: Mycobacterium tuberculosis; assay: Antitubercular activity against drug-sensitive Mycobacterium tuberculosis
[2] = system: Mycolicibacterium smegmatis; assay: Antitubercular activity against Mycobacterium smegmatis by checkerboard assay
[3] = system: Mycolicibacterium smegmatis; assay: Antitubercular activity against Mycobacterium smegmatis by checkerboard assay in presence of chlorpromazine; settings: for MIC99: Mycolicibacterium smegmatis
[4] = system: Mycolicibacterium smegmatis; assay: Antitubercular activity against Mycobacterium smegmatis assessed as reduction in MIC99 by checkerboard assay in presence of chlorpromazine sulfoxide relative to control
[5] = system: Mycolicibacterium smegmatis; assay: Antitubercular activity against Mycobacterium smegmatis assessed as reduction in MIC99 by checkerboard assay in presence of chlorpromazine-N-S-dioxide relative to control
[6] = system: Mycolicibacterium smegmatis; assay: Antitubercular activity against Mycobacterium smegmatis by checkerboard assay in presence of 7-hydroxy chlorpromazine; settings: for MIC99: Mycolicibacterium smegmatis
[7] = system: Mycolicibacterium smegmatis; assay: Antitubercular activity against Mycobacterium smegmatis by checkerboard assay in presence of chlorpromazine-N-oxide; settings: for MIC99: Mycolicibacterium smegmatis
[8] = system: Mycolicibacterium smegmatis; assay: Antitubercular activity against Mycobacterium smegmatis by checkerboard assay in presence of nor-chlorpromazine; settings: for MIC99: Mycolicibacterium smegmatis
[9] = system: Mycolicibacterium smegmatis; assay: Antitubercular activity against Mycobacterium smegmatis by checkerboard assay in presence of chlorpromazine-N-S-dioxide
[10] = system: Mycolicibacterium smegmatis; assay: Antitubercular activity against Mycobacterium smegmatis by checkerboard assay in presence of chlorpromazine sulfoxide
[11] = system: Mycolicibacterium smegmatis; assay: Ratio of MIC99 for Mycobacterium smegmatis to ratio of MIC99 for Mycobacterium smegmatis in presence of chlorpromazine
[12] = system: Mycolicibacterium smegmatis; assay: Ratio of MIC99 for Mycobacterium smegmatis to ratio of MIC99 for Mycobacterium smegmatis in presence of 7-hydroxy chlorpromazine
[13] = system: Mycolicibacterium smegmatis; assay: Ratio of MIC99 for Mycobacterium smegmatis to ratio of MIC99 for Mycobacterium smegmatis in presence of chlorpromazine-N-oxide
[14] = system: Mycolicibacterium smegmatis; assay: Ratio of MIC99 for Mycobacterium smegmatis to ratio of MIC99 for Mycobacterium smegmatis in presence of nor-chlorpromazine
[15] = system: Mycolicibacterium smegmatis; assay: Antitubercular activity against Mycobacterium smegmatis by checkerboard assay in presence of spectinomycin
[16] = system: Mycolicibacterium smegmatis; assay: Antitubercular activity against Mycobacterium smegmatis by checkerboard assay in presence of rifampicin
[17] = system: Mycolicibacterium smegmatis; assay: Antitubercular activity against Mycobacterium smegmatis by checkerboard assay in presence of 25-desacetylrifampicin
[18] = system: Mycolicibacterium smegmatis; assay: Antitubercular activity against Mycobacterium smegmatis by checkerboard assay in presence of kanamycin
[19] = system: Mycolicibacterium smegmatis; assay: Ratio of MIC99 for Mycobacterium smegmatis to ratio of MIC99 for Mycobacterium smegmatis in presence of 25-desacetylrifampicin
[20] = system: Mycolicibacterium smegmatis; assay: Ratio of MIC99 for Mycobacterium smegmatis to ratio of MIC99 for Mycobacterium smegmatis in presence of kanamycin
[21] = system: Mycolicibacterium smegmatis; assay: Antitubercular activity against Mycobacterium smegmatis assessed as reduction in MIC99 by checkerboard assay in presence of nor-chlorpromazine sulfoxide relative to control
[22] = system: Mycolicibacterium smegmatis; assay: Antitubercular activity against Mycobacterium smegmatis by checkerboard assay in presence of nor-chlorpromazine sulfoxide

Question: CN[C@@H]1[C@H](O)[C@H](NC)[C@H]2O[C@]3(O)[C@H](O[C@@H]2[C@H]1O)O[C@H](C)C[C@H]3NC(=O)Cc1ccc(Cl)cn1 was tested. Which MIC [1] did it give?
Answer: 0.8 µg/mL (≈ 1.64 µM)

Question: For NC[C@H]1O[C@H](O[C@H]2[C@H](O)[C@@H](O[C@H]3O[C@H](CO)[C@@H](O)[C@H](N)[C@H]3O)[C@H](N)C[C@@H]2N)[C@H](O)[C@@H](O)[C@@H]1O [KANAMYCIN], which MIC99 [2] is on record?
Answer: 7.16 µM

Question: And the “fractional inhibitory concentration index (FICI)” value [3]?
Answer: 1

Question: And the MIC99 [3]?
Answer: 3.57 µM

Question: And the “fold change (FC)” value [4]?
Answer: 2

Question: What about the “fold change (FC)” value [5] of the same compound?
Answer: 2

Question: What about the “fractional inhibitory concentration index (FICI)” value [6] of the same compound?
Answer: 0.5

Question: And the MIC99 [6]?
Answer: 0.89 µM

Question: What about the “fractional inhibitory concentration index (FICI)” value [7] of the same compound?
Answer: 1

Question: What about the MIC99 [7] of the same compound?
Answer: 0.89 µM

Question: And the “fractional inhibitory concentration index (FICI)” value [8]?
Answer: 0.5

Question: What about the MIC99 [8] of the same compound?
Answer: 0.89 µM

Question: And the MIC99 [9]?
Answer: 0.89 µM

Question: What about the MIC99 [10] of the same compound?
Answer: 0.89 µM

Question: And the Ratio [11]?
Answer: 0.5

Question: And the Ratio [12]?
Answer: 0.249

Question: What about the Ratio [13] of the same compound?
Answer: 0.497

Question: What about the Ratio [14] of the same compound?
Answer: 0.249

Question: What does the source list for CO[C@H]1/C=C/O[C@@]2(C)Oc3c(C)c(O)c4c(O)c(c(/C=N/N5CCN(C)CC5)c(O)c4c3C2=O)NC(=O)/C(C)=C\C=C\[C@H](C)[C@H](O)[C@@H](C)[C@@H](O)[C@@H](C)[C@H](OC(C)=O)[C@@H]1C [RIFAMPIN]?
Answer: MIC99 [2]: 2.53 µM; fractional inhibitory concentration index (FICI) [3]: 0.63; MIC99 [3]: 0.2 µM; fractional inhibitory concentration index (FICI) [6]: 0.63; MIC99 [6]: 0.32 µM; fractional inhibitory concentration index (FICI) [7]: 1; MIC99 [7]: 0.63 µM; fractional inhibitory concentration index (FICI) [8]: 0.5; MIC99 [8]: 0.32 µM; Ratio [11]: 0.126; Ratio [12]: 0.126; Ratio [13]: 0.5; Ratio [14]: 0.254

Question: Which results are given for CNCCCN1c2ccccc2[S+]([O-])c2ccc(Cl)cc21 (configuration not stated)?
Answer: MIC99 [2]: > 2080 µM; MIC99 [15]: 64.9 µM

Question: With CNCCCN1c2ccccc2Sc2ccc(Cl)cc21 [NOR1-CHLORPROMAZINE] as the compound, how does the MIC99 [2] read?
Answer: 137 µM

Question: And the MIC99 [16]?
Answer: 34.2 µM

Question: And the MIC99 [17]?
Answer: 34.2 µM

Question: What about the MIC99 [18] of the same compound?
Answer: 34.2 µM

Question: And the MIC99 [15]?
Answer: 34.2 µM

Question: And the Ratio [19]?
Answer: 0.25

Question: And the Ratio [20]?
Answer: 0.25

Question: With CN(C)CCCN1c2ccccc2Sc2ccc(Cl)cc21 [CHLORPROMAZINE] as the compound, how does the MIC99 [2] read?
Answer: 117 µM

Question: What about the MIC99 [16] of the same compound?
Answer: 58.6 µM

Question: And the MIC99 [17]?
Answer: 29.3 µM

Question: And the MIC99 [18]?
Answer: 58.6 µM

Question: What about the MIC99 [15] of the same compound?
Answer: 29.3 µM

Question: And the MIC99 [6]?
Answer: 29.3 µM

Question: What about the Ratio [20] of the same compound?
Answer: 0.5

Question: And the Ratio [12]?
Answer: 0.25

Question: CN[C@@H]1[C@H](O)[C@H](NC)[C@H]2O[C@@]3(O)C(=O)C[C@@H](C)O[C@H]3O[C@@H]2[C@H]1O [SPECTINOMYCIN] was tested. Which MIC99 [2] did it give?
Answer: 84.1 µM

Question: What about the “fractional inhibitory concentration index (FICI)” value [3] of the same compound?
Answer: 0.31

Question: What about the MIC99 [3] of the same compound?
Answer: 5.25 µM

Question: And the “fold change (FC)” value [4]?
Answer: 16

Question: And the “fold change (FC)” value [5]?
Answer: 2

Question: And the “fold change (FC)” value [21]?
Answer: 4

Question: And the “fractional inhibitory concentration index (FICI)” value [6]?
Answer: 0.19

Question: What about the MIC99 [6] of the same compound?
Answer: 5.25 µM

Question: And the “fractional inhibitory concentration index (FICI)” value [7]?
Answer: 0.63

Question: And the MIC99 [7]?
Answer: 84.1 µM

Question: And the “fractional inhibitory concentration index (FICI)” value [8]?
Answer: 0.31

Question: And the MIC99 [8]?
Answer: 5.25 µM

Question: And the MIC99 [9]?
Answer: 42 µM

Question: And the MIC99 [10]?
Answer: 10.5 µM

Question: What about the MIC99 [22] of the same compound?
Answer: 21 µM

Question: What about the Ratio [11] of the same compound?
Answer: 0.062

Question: What about the Ratio [12] of the same compound?
Answer: 0.062

Question: What about the Ratio [13] of the same compound?
Answer: 0.5

Question: What about the Ratio [14] of the same compound?
Answer: 0.062

Question: With CN[C@@H]1[C@H](O)[C@H](NC)[C@H]2O[C@]3(O)[C@H](O[C@@H]2[C@H]1O)O[C@H](C)C[C@H]3NC(=O)Cc1ccc(F)cn1 as the compound, how does the MIC [1] read?
Answer: 0.8 µg/mL (≈ 1.7 µM)

Question: For CN[C@@H]1[C@H](O)[C@H](NC)[C@H]2O[C@]3(O)[C@H](O[C@@H]2[C@H]1O)O[C@H](C)C[C@H]3NC(=O)Cc1ccccc1, which MIC [1] is on record?
Answer: 0.8 µg/mL (≈ 1.77 µM)

Question: With C[N+](C)([O-])CCCN1c2ccccc2[S+]([O-])c2ccc(Cl)cc21 (configuration not stated) as the compound, how does the MIC99 [2] read?
Answer: > 1900 µM

Question: What about the MIC99 [18] of the same compound?
Answer: 475 µM

Question: What about the MIC99 [15] of the same compound?
Answer: 1900 µM

Question: Which MIC [1] does the source give for CN[C@@H]1[C@H](O)[C@H](NC)[C@H]2O[C@]3(O)[C@H](O[C@@H]2[C@H]1O)O[C@H](C)C[C@H]3NC(=O)Cc1cc(Cl)ccn1 here?
Answer: 0.8 µg/mL (≈ 1.64 µM)

Question: How did the MIC [1] turn out when CN[C@@H]1[C@H](O)[C@H](NC)[C@H]2O[C@]3(O)[C@H](O[C@@H]2[C@H]1O)O[C@H](C)C[C@H]3NC(=O)Cc1ccccn1 was run?
Answer: 0.8 µg/mL (≈ 1.77 µM)

Question: Which results are given for CO[C@H]1/C=C/O[C@@]2(C)Oc3c(C)c(O)c4c(O)c(c(/C=N/N5CCN(C)CC5)c(O)c4c3C2=O)NC(=O)/C(C)=C\C=C\[C@H](C)[C@H](O)[C@@H](C)[C@@H](O)[C@@H](C)[C@H](O)[C@@H]1C [DESACETYLRIFAMPIN]?
Answer: MIC99 [2]: 5.33 µM; fractional inhibitory concentration index (FICI) [3]: 0.5; MIC99 [3]: 1.33 µM; fractional inhibitory concentration index (FICI) [6]: 0.75; MIC99 [6]: 0.33 µM; fractional inhibitory concentration index (FICI) [7]: 0.75; MIC99 [7]: 0.67 µM; fractional inhibitory concentration index (FICI) [8]: 0.5; MIC99 [8]: 0.67 µM; Ratio [11]: 0.25; Ratio [12]: 0.248; Ratio [13]: 0.252; Ratio [14]: 0.252

Question: For CN[C@@H]1[C@H](O)[C@H](NC)[C@H]2O[C@]3(O)[C@H](O[C@@H]2[C@H]1O)O[C@H](C)C[C@H]3NC(=O)CNC(C)(C)C, which MIC [1] is on record?
Answer: 0.8 µg/mL (≈ 1.79 µM)

Question: CN(C)CCCN1c2ccccc2[S+]([O-])c2ccc(Cl)cc21 (configuration not stated) [CHLOROPROMAZINE SULFOXIDE] was tested. Which MIC99 [2] did it give?
Answer: > 1990 µM

Question: What about the MIC99 [18] of the same compound?
Answer: 1990 µM

Question: What about the MIC99 [15] of the same compound?
Answer: 1990 µM

Question: Which results are given for CN(C)CCCN1c2ccc(O)cc2Sc2ccc(Cl)cc21 [7-HYDROXYCHLORPROMAZINE]?
Answer: MIC99 [2]: 62.2 µM; MIC99 [16]: 31.1 µM; MIC99 [17]: 62.2 µM; MIC99 [18]: 31.1 µM; MIC99 [15]: 15.6 µM; MIC99 [3]: 62.2 µM; Ratio [11]: 0.5; Ratio [19]: 0.5

Question: With C[N+](C)([O-])CCCN1c2ccccc2Sc2ccc(Cl)cc21 as the compound, how does the MIC99 [2] read?
Answer: 995 µM

Question: What about the MIC99 [16] of the same compound?
Answer: 498 µM

Question: What about the MIC99 [17] of the same compound?
Answer: 498 µM

Question: What about the MIC99 [18] of the same compound?
Answer: 498 µM

Question: And the MIC99 [15]?
Answer: 124 µM

Question: And the Ratio [19]?
Answer: 0.5

Question: And the Ratio [20]?
Answer: 0.5

Question: With CN[C@@H]1[C@H](O)[C@H](NC)[C@H]2O[C@]3(O)[C@H](O[C@@H]2[C@H]1O)O[C@H](C)C[C@H]3NC(=O)Cc1cscn1 as the compound, how does the MIC [1] read?
Answer: 0.8 µg/mL (≈ 1.74 µM)

Source: ChEMBL document CHEMBL3352027, “Pharmacologically active metabolites, combination screening and target identification-driven drug repositioning in antituberculosis drug discovery” (2014)
